Literature values, collected in patent US9750683B2, “Antifungal compositions for the treatment of skin and nails” (Veloce BioPharma, LLC, priority 2012, dated 2017).
Read-outs that look alike come from different tables or passages of the source.

ratio of penetration (dissolved in DMSO, relative to the other solvents): 60
ratio of penetration (dissolved in alcohol): 3
ratio of penetration (dissolved in benzene): 1
ratio of penetration (dissolved in dimethylacetamide): 40
ratio of penetration (dissolved in dimethylformamide): 7
Compound: COC1=CC(=O)C[C@@H](C)[C@]12Oc1c(Cl)c(OC)cc(OC)c1C2=O [griseofulvin]
